Experimental data from patent publication US8163921B2, “Hepatitis C virus inhibitors” (Bristol-Myers Squibb Company, priority 2008, dated 2012).

Target: T1, HCV NS3/4A protease complex, BMS strain (UniProt P27958, C1454S/C1711G, species not given/STRAIN_BMS)
T1 construct: other: BMS strain; fused on or other part: three-lysine solubilising tail at the C-terminus of NS4A; purified on Ni-NTA from the pET21b vector (His tag implied)
Assay: FRET peptide assay to monitor HCV NS3/4A proteolytic activity (BMS strain)
Type: biochemical, HCV genotype 1a
Settings: read-out: IC50 against the NS3/4A BMS strain in the enzyme assay; BMS strain
How it was run: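 Recombinant HCV NS3/4A protease complex (BMS strain, genotype 1a), 2-3 nM final (300 pM with 50 μg/ml BSA for very potent compounds), incubated with RET S1 EDANS/DABCYL depsipeptide substrate at 2 μM final. Buffer: 50 mM HEPES pH 7.5, 0.15 M NaCl, 0.1% Triton, 15% glycerol, 10 mM βME. Cleavage followed in real time by fluorescence.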

C=C[C@@H]1C[C@]1(NC(=O)[C@@H]1C[C@@H](Oc2ncc(OC)c3ccc(Cl)cc23)CN1C(=O)[C@@H](Nc1nc(-c2cccc(OC(F)(F)F)c2)cs1)C(C)(C)C)C(=O)NS(=O)(=O)C1CC1 [Example 68]
IC50: 4 nM
